Earlier results as cited in EP4088834A1, “INORGANIC COATED SAND” (Kao Corporation, priority 2020, dated 2021).

Details: 25°C

## [O]=[Ca] [calcium oxide]
  solubility in water: 1190 µg/mL
